In patent publication US20110045100A1, “Antimalarial Quinolines and Methods of Use Thereof” (GEORGETOWN UNIVERSITY, priority 2008, published 2011):
Read-outs that look alike come from different tables or passages of the source. One block for each compound: values may come before it.

Tests used:
[1] = tested on: FCB (CQR strain of P. falciparum); test: SYBR Green I antiplasmodial assay, strain FCB; assay type: cell-based, Plasmodium falciparum; conditions: Plasmodium falciparum, read-out: IC50 for FCB
Description: (§1) Bennett T. N.; Paguio, M.; Gligorijevic, B.; Seudieu, C.; Kosar, A. D.; Davidson, E.; Roepe, P. D. Novel, rapid, and inexpensive cell-based quantification of antimalarial drug efficacy. Antimicrob. Agents Chemother. 2004, 48, 1807-1810; Smilkstein, M.; Sriwilaijaroen, N.; Kelly, J. X.; Wilairat, P.; Riscoe, M. Simple and inexpensive fluorescence-based technique for high-throughput antimalarial drug screening. Antimicrob. Agents Chemother. 2004, 48, 1803-1806; and Johnson, J. D.; Dennull, R. A.; Gerena, L.; Lopez-Sanchez, M.; Roncal, N. E.; Waters, N.C. Assessment and continued validation of the malaria SYBR green I-based fluorescence assay for use in malaria drug screening. Antimicrob. Agents Chemother. 2007, 51, 1926-1933. […] Drake, N. L.; Creech, H. J.; Garman, J. A.; Haywood, S. T.; Peck, R. M.; van Hook, J. O.; Walton, E. Synthetic antimalrials. The preparation of certain 4-aminoquinolines. J. Am. Chem. Soc. […] Trans. R. Soc. Trop. Med. Hyg. […] J. Parasitol. 1983, 69, 97-105. The selectivity index provides a quantitative measure of the antimalarial activity against CQR strains relative to that against sensitive strains and thus indicates promising drug discovery leads. […] This can be combined with the introduction of a third basic amino function which should further favor accumulation of the drug within the acidic food vacuole of the parasite.
(§2) Drug activities were assessed and IC50 were quantified essentially as described previously. Delarue, S.; Girault, S.; Maes, L.; Debreu-Fontaine, M. A.; Labaeid, M.; Grellier, P.; Sergheraert, C. Synthesis and in vitro and in vivo antimalarial activity of new 4-anilinoquinolines. J. Med. Chem. 2001, 44, 2827-2833; and O'Neill, P. M.; Willock, D. J.; Hawley, S. R.; Bray, P. G.; Storr, R. C.; Ward, S. A.; Park, B. K. Synthesis, antimalarial activity, and molecular modeling of tebuquine analogues. J. Med. Chem. 1997, 40, 437-448. The aminoquinolines were diluted using complete media under sterile conditions and plated in a 96 well plate format. Sorbitol synchronized cultures were utilized with >95% of the parasites at the ring stage. Cultures were diluted to give a working stock of 0.5% parasitemia and 2% hematocrit (final hematocrit 1% & 0.5% Parasitemia). The plates were incubated for 72 h at 37° C. After 72 h, 50 μL of 10×SYBR green I dye was added to each well, and the plate was incubated for 1 h at 37° C. Fluorescence was measured at 530 nm (490 nm excitation) using a spectra geminiEM plate reader. Data analysis was performed using sigma plot 9.0 software after downloading data in Excel format.

[2] = tested on: Dd2 (chloroquine resistant strain of P. falciparum); test: SYBR Green I antiplasmodial assay, strain Dd2; assay type: cell-based, Plasmodium falciparum
Description: as §1
The antiplasmodial activity of these compounds was measured versus a CQS (HB3) and a CQR (Dd2) strain using a standardized, inexpensive assay based on SYBR Green I intercalation. Bennett T. N.; Paguio, M.; Gligorijevic, B.; Seudieu, C.; Kosar, A. D.; Davidson, E.; Roepe, P. D. Antimicrob. Agents Chemother. 2004, 48, 1807-1810; Smilkstein, M.; Sriwilaijaroen, N.; Kelly, J. X.; Wilairat, P.; Riscoe, M. Antimicrob. Agents Chemother. 2004, 48, 1803-1806; and Johnson, J. D.; Dennull, R. A.; Gerena, L.; Lopez-Sanchez, M.; Roncal, N. E.; Waters, N.C. Antimicrob. Agents Chemother. 2007, 51, 1926-1933. […] De, D.; Krogstad, F. M.; Cogswell, F. B.; Krogstad, D. J. Am. J. Trop. Med. Hyg. 1996, 55, 579-583. […] The basic tertiary amino function in the side chain is commonly believed to be crucial for the accumulation of the drug within the acidic food DV.
as §2

monomeric heme = test: Heme affinity measurement, monomeric heme; assay type: binding; conditions: acidic 40% DMSO
Protocol: To test whether binding to Hz precursors is also altered for the 4S and 4O derivatives, binding constants were measured as previously described for both μ-oxo dimeric and monomeric heme (FIG. 25). […] J. Am. Chem. Soc. 1988, 110, 4391-4395; Egan, T. J.; Mavuso, W. W.; Ross, D. C.; Marques, H. M. Thermodynamic factors controlling the interaction of quinoline antimalarial drugs with ferriprotoporphyrin IX. J. Inorg. Biochem. 1997, 68, 137-145; and Egan, T. J.; Ncokazi, K. K. Effects of solvent composition and ionic strength on the interaction of quinoline antimalarials with ferriprotoporphyrin IX. J. Inorg. Biochem. 2004, 98, 144-152. Due to the instability of monomeric heme in aqueous solution, the affinity to monomer measured by conventional absorbance experiments can only be estimated using 40% DMSO in water as solvent. Egan, T. J.; Ncokazi, K. K. Effects of solvent composition and ionic strength on the interaction of quinoline antimalarials with ferriprotoporphyrin IX. J. Inorg. Biochem. 2004, 98, 144-152. At appropriately acidic solution pH (≦5.0) FPIX heme is primarily monomeric, whereas at pH 7, appreciable dimer is formed. As shown (FIG. 25), CQ and compounds 88, 93, and 98 all have poor affinity for monomeric heme in acidic 40% DMSO. To further test if CQ interacts with monomeric heme, T1 measurements of the CQ protons were made with samples containing 10 mM CQ and 2 mM hemin chloride in 40% DMSO at pH 5.0. Although the lines are broadened in this solution due to paramagnetic susceptibility, the measured T1's indicate only weak paramagnetic relaxation. For example, the measured T1 for CQ proton 1 in this sample is 0.70 s, whereas at pH 7.0 the T1 for the same proton is 0.039 s.
To measure affinity for monomeric heme, 1.2 mM stock solutions of hemin (sodium salt from Sigma-Aldrich) were prepared in DMSO and stored as […] aliquots. 4.8 μM working solutions were prepared in 40% DMSO/phosphate buffer (fresh stocks prepared daily). Stock solutions of CQ and CQ analogues (diphosphate or dihydrochloride salts) were prepared in 40% DMSO/phosphate buffer and used for the titration experiments (all drugs dilutions were prepared in the same buffer).
1.5 mL cuvettes containing freshly prepared samples of 4.8 μM heme were titrated with increasing concentrations (0-50 μM) of drug. Following each addition, the sample was mixed and heme absorbance then recorded at 402 nm. Control experiments were performed by titrating 4.8 μM heme with similar volumes of solvent and no drug present. […] The absorbance peak analysis was done using Microsoft excel and Ka were extracted from the ΔAbs402 plots via Scatchard analysis using Microsoft Excel and Sigma plot 9.0.1 software.

[3] = tested on: CQS (HB3, GCO3) and CQR (Dd2, FCB) strains of P. falciparum; test: SYBR Green I antiplasmodial assay, several CQS and CQR strains; assay type: cell-based, Plasmodium falciparum
Description: as §1
(§3) Bennett T. N.; Paguio, M.; Gligorijevic, B.; Seudieu, C.; Kosar, A. D.; Davidson, E.; Roepe, P. D. Novel, rapid, and inexpensive cell-based quantification of antimalarial drug efficacy. Antimicrob. Agents Chemother. 2004, 48, 1807-1810; Smilkstein, M.; Sriwilaijaroen, N.; Kelly, J. X.; Wilairat, P.; Riscoe, M. Simple and inexpensive fluorescence-based technique for high-throughput antimalarial drug screening. Antimicrob. Agents Chemother. 2004, 48, 1803-1806; and Johnson, J. D.; Dennull, R. A.; Gerena, L.; Lopez-Sanchez, M.; Roncal, N. E.; Waters, N.C. Assessment and continued validation of the malaria SYBR green I-based fluorescence assay for use in malaria drug screening. Antimicrob. Agents Chemother. 2007, 51, 1926-1933.
Drug activities were assessed and IC50 were quantified essentially as described previously. Delarue, S.; Girault, S.; Maes, L.; Debreu-Fontaine, M. A.; Labaeid, M.; Grellier, P.; Sergheraert, C. Synthesis and in vitro and in vivo antimalarial activity of new 4-anilinoquinolines. J. Med. Chem. 2001, 44, 2827-2833; and O'Neill, P. M.; Willock, D. J.; Hawley, S. R.; Bray, P. G.; Storr, R. C.; Ward, S. A.; Park, B. K. Synthesis, antimalarial activity, and molecular modeling of tebuquine analogues. J. Med. Chem. 1997, 40, 437-448.

hemozoin (Hz) formation = test: Quantification of in vitro Hz formation inhibition; assay type: biochemical
Protocol: A stock solution of 5 mM hemin (Fluka) in 0.1M NaOH was prepared and stored as small aliquots at -20° C. Fresh aliquots were thawed daily to room temperature before use. Lecithin stock solutions were prepared by dissolving in distilled water to 10 mg/ml and similarly stored. 0.5 M propionate was used to buffer experiments in the pH range 5.2-5.6. The assay mixture (1 mL volumes) contained: 200 μL lecithin solution ([…] final) 20 μL hematin (100 μM final concentration) 20 μ[…] propionate buffer (X) μL drug (dependant on the concentration required 0-1000 μM). The addition sequence involved first adding the lecithin followed by heme, HCl, propionate buffer and finally the drug. Each sample was prepared in triplicate. Following addition of the reagents the samples were incubated at 37° C. with constant shaking for 18 h. After 18 h the assay was stopped by spinning the samples at 13,200 rpm for 10 minutes followed by carefully aspirating off the supernatant. The pellet was then resuspended in 50 mM bicarbonate buffer pH 9.0 (1 mL) and gently shaken at room temperature for 30 minutes to dissolve uncrystallized heme. The samples were then centrifuged as above and the supernatant removed. […] The samples were then dissolved in 0.1M NaOH to solubilize β-hematin to free heme and β-hematin formed was then quantified via heme absorbance at 402 nm. Calibration curves were prepared by titrating increasing amounts of heme in the same solvent vs. absorbance at 402 nm.

μ-oxo dimeric heme = test: Heme affinity measurement, μ-oxo dimeric heme; assay type: binding; conditions: aqueous solution
Protocol: 1.5 mL cuvettes containing freshly prepared samples of 4.8 μM heme were titrated with increasing concentrations (0-50 μM) of drug. Following each addition, the sample was mixed and heme absorbance then recorded at 402 nm. Control experiments were performed by titrating 4.8 μM heme with similar volumes of solvent and no drug present. To measure affinity for μ-oxo dimeric heme, the procedure was similar except hemin was first converted to dimeric form in mild alkaline solution, followed by titration to pH 7.5 using Hepes buffer. The absorbance peak analysis was done using Microsoft excel and Ka were extracted from the ΔAbs402 plots via Scatchard analysis using Microsoft Excel and Sigma plot 9.0.1 software.

[4] = tested on: HB3 (chloroquine sensitive strain of P. falciparum); test: SYBR Green I antiplasmodial assay, strain HB3; assay type: cell-based, Plasmodium falciparum; conditions: CQS strain HB3; read-out: IC50 against HB3
Description: as §3, with “1926-1933. […] The selectivity index provides a quantitative measure of the antimalarial activity against CQR strains relative to that against sensitive strains and thus indicates promising drug discovery leads. […]” for “1926-1933.”
The antiplasmodial activity of these compounds was measured versus a CQS (HB3) and a CQR (Dd2) strain using a standardized, inexpensive assay based on SYBR Green I intercalation. […]
Drug activities were assessed and IC50 were quantified essentially as described previously. […] Fluorescence was measured at 530 nm (490 nm excitation) using a spectra geminiEM plate reader. […]

[5] = pKa determination by acid/base titration; assay type: physicochemical; conditions: distilled water; measured; read-out: quinolyl N pKa
Protocol: SPARC pKa calculator is an online tool developed at the University of Georgia by S. W. Karickhoff, L. A. Carreira and S. H. Hilal. Experimental pKa were determined using an Accumet AB15 pH meter and a calomel electrode. 10 mM solutions of the drugs (as dibasic salts) were made in distilled H2O and titrated at room temperature (23.0±2.0° C.) using 0.1 M NaOH. Titration plots were generated and pKa's extracted via inflection points from the second derivative plots; (Δ^2pH/ΔV^2) vs. V, where V represents the volume of the titrant added and ΔV is the volume increment.

SMILES: CCN(CC)CCCC(C)Nc1ccnc2cc(Cl)ccc12 (stereo not drawn) [CQ, chloroquine, reference compound]
IC50 [1]: 170 nM
IC50 ([2]; Plasmodium falciparum, DD2, read-out: IC50 against Dd2): 140 nM
affinity for monomeric heme (monomeric heme): poor affinity

SMILES: CCN(CC)CCCC(CCCN(CC)CC)Oc1ccnc2cc(Cl)ccc12 [compound 102, 7-Chloro-4-(1′,7′-bis(diethylamino)-4′-heptoxy)quinoline]
activity vs. both CQR and CQS strains relative to 93 ([3]; FIG. 23): improved activity
fold lower IC50 relative to 98 ([3]; strains Dd2 and FCB): 10 fold
inhibition of Hz formation relative to monobasic 4O derivative 13 (hemozoin (Hz) formation): more potent inhibitor of Hz formation

SMILES: CCN(CC)CCCCNc1ccnc2cc(Cl)ccc12 [compound 88, N-(7-Chloro-4-quinolyl)-N′,N′-diethyl-1,4-diaminobutane]
affinity (association constant Ka) vs. μ-oxo dimer (μ-oxo dimeric heme): quite similar
affinity for monomeric heme (monomeric heme): poor affinity

IC50 [4]: 17.5 nM
IC50 ([2]; CQR strain Dd2, read-out: IC50 against Dd2): 22.7 nM
SMILES: CCN(CCNc1ccnc2cc(Cl)ccc12)CCNS(=O)(=O)c1cccc2c(N(C)C)cccc12 [compound 23]
activity against the CQ resistant strain Dd2 in comparison with CQ ([2]; compared with CQ): significantly more potent

pKa [5]: 4.1
SMILES: CCN(CC)CCCCSc1ccnc2cc(Cl)ccc12 [compound 98, S-(7-Chloro-4-quinolyl)-4-(N,N-diethylamino)butanethiol]
affinity (association constant Ka) vs. μ-oxo dimer (μ-oxo dimeric heme): quite similar
ability to inhibit Hz formation vs. that measured for CQ and 8 (hemozoin (Hz) formation; FIG. 26): significantly lower
affinity for monomeric heme (monomeric heme): poor affinity
